Measurements: paper PMC3117834 (PLoS ONE, 2011)

Legend:
Assay type in all cases: biochemical
Hog1 [1] = target: T1, Hog1 (Saccharomyces cerevisiae, UniProt P32485); assay: […] kinase assay, Sic1 phosphorylation, autoradiography
T1 construct: pGEX-4T1 E. coli version also made
T1 sequence (P32485 2-435): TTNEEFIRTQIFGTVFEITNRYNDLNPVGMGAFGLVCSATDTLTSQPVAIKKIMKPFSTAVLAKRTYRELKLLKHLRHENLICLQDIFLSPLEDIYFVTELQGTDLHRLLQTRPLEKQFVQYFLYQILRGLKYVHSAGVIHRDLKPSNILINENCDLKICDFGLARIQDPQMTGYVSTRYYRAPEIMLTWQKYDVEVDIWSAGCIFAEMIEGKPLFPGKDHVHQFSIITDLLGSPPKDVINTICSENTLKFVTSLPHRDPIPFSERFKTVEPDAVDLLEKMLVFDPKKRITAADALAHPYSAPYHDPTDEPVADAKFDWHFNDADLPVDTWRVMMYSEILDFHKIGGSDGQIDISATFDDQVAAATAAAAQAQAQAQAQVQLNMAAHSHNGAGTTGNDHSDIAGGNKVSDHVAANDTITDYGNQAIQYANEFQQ

Pbs2 [2] = target: T2, Pbs2 (Saccharomyces cerevisiae, UniProt P08018, M435A); assay: […] kinase assay, Hog1 phosphorylation, autoradiography
T2 construct: GST fusion (pGEX-4T1) from E. coli DH5alpha
T2 sequence (P08018 1-668 M435A): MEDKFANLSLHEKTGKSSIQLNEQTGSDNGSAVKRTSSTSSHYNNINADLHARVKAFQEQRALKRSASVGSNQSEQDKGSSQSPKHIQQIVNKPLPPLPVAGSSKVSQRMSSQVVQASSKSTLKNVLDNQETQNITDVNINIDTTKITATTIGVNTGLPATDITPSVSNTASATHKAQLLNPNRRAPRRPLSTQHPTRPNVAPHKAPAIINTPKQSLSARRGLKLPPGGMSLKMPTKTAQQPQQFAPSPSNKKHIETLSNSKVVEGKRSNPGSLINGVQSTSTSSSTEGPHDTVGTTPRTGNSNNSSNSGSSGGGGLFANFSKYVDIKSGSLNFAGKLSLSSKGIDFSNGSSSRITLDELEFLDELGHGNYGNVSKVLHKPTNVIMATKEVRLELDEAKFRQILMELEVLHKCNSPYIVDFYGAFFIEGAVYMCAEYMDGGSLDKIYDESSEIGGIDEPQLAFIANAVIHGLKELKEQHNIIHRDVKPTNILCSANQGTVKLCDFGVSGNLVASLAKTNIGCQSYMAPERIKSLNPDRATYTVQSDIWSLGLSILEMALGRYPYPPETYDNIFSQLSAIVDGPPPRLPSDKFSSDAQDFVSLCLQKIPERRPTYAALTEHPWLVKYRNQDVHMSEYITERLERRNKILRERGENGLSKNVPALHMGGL

Hog1 [3] = target: T3, Hog1 (Saccharomyces cerevisiae, UniProt P32485, T100G); assay: […] kinase assay, Sic1 phosphorylation, autoradiography
T3 construct: pGEX-4T1 E. coli version also made
T3 sequence (P32485 2-435 T100G): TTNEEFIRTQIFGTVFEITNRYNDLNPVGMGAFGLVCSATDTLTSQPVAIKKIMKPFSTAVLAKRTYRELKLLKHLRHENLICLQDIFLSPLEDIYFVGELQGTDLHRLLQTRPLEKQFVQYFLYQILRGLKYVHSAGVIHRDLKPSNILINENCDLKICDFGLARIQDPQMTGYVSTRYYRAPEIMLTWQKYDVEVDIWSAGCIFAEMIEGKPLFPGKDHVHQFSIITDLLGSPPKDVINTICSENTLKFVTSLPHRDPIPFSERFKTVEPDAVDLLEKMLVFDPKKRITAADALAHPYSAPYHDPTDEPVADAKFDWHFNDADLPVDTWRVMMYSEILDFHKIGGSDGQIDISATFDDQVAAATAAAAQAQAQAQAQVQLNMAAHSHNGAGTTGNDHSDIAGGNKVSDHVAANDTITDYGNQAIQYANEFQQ

Hog1 [4] = target: T3, Hog1; assay: as above; remark: listed apart in the source
Pbs2 [5] = target: T2, Pbs2; assay: […] kinase assay, Hog1 phosphorylation, autoradiography; settings: [gamma-32P]-phenethyl-ATP as phosphodonor; GST-Hog1 substrate; pH 8.0; 30 °C
Hog1 [6] = target: T3, Hog1; assay: […] kinase assay, Sic1 phosphorylation, autoradiography; settings: in vitro-activated Hog1as

## CC(C)n1nc(-c2ccc(F)cc2)c2c(N)ncnc21 [5b, 3-(4-Fluorophenyl)-1-isopropyl-1H-pyrazolo[3,4-d]pyrimidin-4-amine]
Hog1 [1]
  inhibition at 5 µM: 94%

## CC(C)n1nc(C#Cc2ccccc2)c2c(N)ncnc21 [6a, 1-Isopropyl-3-(phenylethynyl)-1H-pyrazolo[3,4-d]pyrimidin-4-amine]
Pbs2 [2]
  IC50: 4.02 ± 0.26 nM
Hog1 [3]
  IC50: 37 ± 2.72 nM

## CC(C)(C)n1nc(Cc2cccc3ccccc23)c2c(N)ncnc21 [compound 9, 1-NM-PP1]
Pbs2 [2]
  IC50: 7.54 ± 0.25 nM
Hog1 [3]
  IC50: 9.47 ± 0.38 nM

## CC(C)n1nc(C#Cc2ccc(F)cc2)c2c(N)ncnc21 [6b, 3-((4-fluorophenyl)ethynyl)-1-isopropyl-1H-pyrazolo[3,4-d]pyrimidin-4-amine]
Hog1 [4]
  inhibition at 5 µM: > 89%
Pbs2 [5]
  % inhibition at 5 μM: Pbs2as was inhibited by all the compounds in vitro

## Nc1ncnc2c1c(C#Cc1ccccc1)nn2CC(O)CO (stereo not shown) [7b, 3-(4-amino-3-(phenylethynyl)-1H-pyrazolo[3,4-d]pyrimidin-1-yl)propane-1,2-diol]
Hog1 [6]
  32P kinase assay, Sic1 phosphorylation, autoradiography: in vitro these compounds were able to inhibit Hog1as as efficiently as 6a

## CC(C)n1nc(C#Cc2ccc(Cl)cc2)c2c(N)ncnc21 [6c, 3-((4-chlorophenyl)ethynyl)-1-isopropyl-1H-pyrazolo[3,4-d]pyrimidin-4-amine]
Hog1 [4]
  inhibition at 5 µM: > 89%

## Nc1ncnc2c1c(C#Cc1ccccc1)nn2CCO [7a, 2-(4-amino-3-(phenylethynyl)-1H-pyrazolo[3,4-d]pyrimidin-1-yl)etanol]
Hog1 [6]
  32P kinase assay, Sic1 phosphorylation, autoradiography: in vitro these compounds were able to inhibit Hog1as as efficiently as 6a
